Measurements: US20240130367A1, “PLANT GROWTH PROMOTERS” (University of Durham, priority 2020, published 2024)
Where a name gives a salt, the structure may show the parent alone.

Assays:
RGA-GFP = assay: DELLA degradation: confocal imaging of RGA-GFP fluorescence in roots; assay type: in vivo, Arabidopsis thaliana; conditions: 100 μM; for GFP fluorescence / stability of DELLA protein in roots: A1 imaged after 2 and 24 hours, PAC applied 48 hours before
Excerpt: (§1) Arabidopsis thaliana wild-type seeds were from laboratory stocks of Columbia (Col-0) and Landsberg erecta (Ler-0) accessions. Arabidopsis thaliana is a dicot. The mutants of gid1 (J. Griffiths, et al., Plant Cell, 2006, 18, 3399-3414) were obtained from Dr. Steve Thomas (Rothamsted Research, UK) and were in a Col-0 background, whilst the della quintuple mutant (S. H. Feng et al. Nature, 2008, 451: 475-479) and ga1-5 (I. Fridborg et al. Plant Cell, 1999, 11: 1019-1031) were in a Ler-0 background and was obtained from the Nottingham Arabidopsis Stock Centre (NASC). The A. thaliana line expressing RGA-GFP (A. L. Silverstone et al. The Plant Cell, 2001, 13: 1555-1565), Col-0 background was obtained from Prof. Keith Lindsey (Durham University, UK). Seeds were plated out 1×MS medium pH 5.8 (T. Murashige and F. Skoog (1962) Physiologia Plantarum 15: 473-497) in petri dishes with a concentration of either 0.8% or 1.2% (w/v) phytoagar for root and hypocotyl measurements, respectively. After sowing seeds were stratified on plates at 4° C. for a minimum of 48 h to achieve synchronous germination. Seedlings were grown for either 7 or 2 days for root and hypocotyl measurements, respectively, prior to treatment with chemicals. For hypocotyl measurements, seeds were sown on nylon mesh (acid resistant monofilament nylon filter mesh fabric; GZ, model number H20M). Seedling were grown in a Percival (CU-36L5D, CLF plant climatics, Emersacker, Germany) with a photoperiod of 16/8 h with a light intensity of either 150 μmol m^2 s^−1 or 50 μmol m^2 s^−1 for root and hypocotyl measurements, respectively, and a temperature of 20±1° C.
Confocal microscopy was performed using a Leica SP5 CLSM FLIM FCCS (Leica Microsystems, Wetzlar, Germany). GFP:RGA seeds were germinated and grown on 1.2% MS vertically for 7 days, and then incubated in chemical solution (at the final concentration of 100 μM) for 2 and 24 hours before being analyzed. […] The excitation wavelength of the argon laser was 488 nm and the emission was detected using a bypass filter of 495-550 nm. […]

plant = conditions: known calmodulin inhibitors; cited from earlier work
Arabidopsis thaliana = assay: Fresh and dry weight measurements of treated seedlings; assay type: in vivo; conditions: 5 days chemical treatment
Method: Leaves and roots fresh weights of 12 days old seedlings, that were subjected to 5 days chemical treatment as described above, were measured. Dry weights were recorded after placing the plant material in oven at 65° C. for 3 days. The measurements were performed on 15 seedlings for each treatment.
Having discovered the root growth-promoting properties of A1, we wished to establish if the effects were limited to the roots, or whether A1 could also promote growth of shoot tissue. We were also interested to see if the effect was on fresh weight, dry weight or both. To investigate this, plants were treated with A1, divided into shoot and root material and the fresh and dry weight recorded.

della quintuple mutant = assay: Hypocotyl growth assay in della quintuple mutant; assay type: in vivo, Arabidopsis thaliana
Excerpt: (§2) Arabidopsis thaliana wild-type seeds were from laboratory stocks of Columbia (Col-0) and Landsberg erecta (Ler-0) accessions. Arabidopsis thaliana is a dicot. The mutants of gid1 (J. Griffiths, et al., Plant Cell, 2006, 18, 3399-3414) were obtained from Dr. Steve Thomas (Rothamsted Research, UK) and were in a Col-0 background, whilst the della quintuple mutant (S. H. Feng et al. Nature, 2008, 451: 475-479) and ga1-5 (I. Fridborg et al. Plant Cell, 1999, 11: 1019-1031) were in a Ler-0 background and was obtained from the Nottingham Arabidopsis Stock Centre (NASC). The A. thaliana line expressing RGA-GFP (A. L. Silverstone et al. The Plant Cell, 2001, 13: 1555-1565), Col-0 background was obtained from Prof. Keith Lindsey (Durham University, UK). […]
(§3) After growing as described above seedlings for root assays were transferred to 1.2% (w/v) agar plates containing each chemical at a final concentration of 100 μM (the addition of the chemicals was performed when media had cooled to 50° C. after autoclaving), with an equivalent concentration of DMSO as control. […] The plants were subsequently grown vertically and after a further 5 days images of the plates were scanned and the root growth that occurred during the 5 days on chemicals was measured using ImageJ software. 18 seedlings were measured for each treatment. […] At least 15 seedlings were measured for each plate. […]

[1] = tested on: Arabidopsis thaliana wild-type; assay: Hypocotyl growth assay under reduced light; assay type: in vivo; conditions: 100 μM; for Effect on hypocotyl growth in wild type / Hypocotyl growth promotion relative to A1: reduced light; for New Length: in cm
Excerpt: as §1
After growing as described above seedlings for root assays were transferred to 1.2% (w/v) agar plates containing each chemical at a final concentration of 100 μM (the addition of the chemicals was performed when media had cooled to 50° C. after autoclaving), with an equivalent concentration of DMSO as control. At this stage the positions of the root tips were marked on the petri dish. The plants were subsequently grown vertically and after a further 5 days images of the plates were scanned and the root growth that occurred during the 5 days on chemicals was measured using ImageJ software. 18 seedlings were measured for each treatment. For hypocotyl measurements the assay performed was adapted from de Lucas et al. (2008, supra). After growing seedlings as described above, the nylon mesh was transferred across to the plates containing chemical. The plants were then placed in vertical orientation for three days under reduced light intensity (by covering plates with 2 layers of 80 g·m^2 white paper) before the plates were scanned. The measurement of hypocotyl was done using ImageJ software. At least 15 seedlings were measured for each plate.
To determine the mechanism of A1 action via the GA/DELLA signaling pathway, the response of A1 in a series of GA synthesis/signalling mutants was investigated. For these assays the focus was on hypocotyl growth, because it is well established that DELLA can inhibit the binding of PIFs to their target promoter leading to a reduction in GA-regulated hypocotyl growth (A. Castillon, H. Shen and E. Huq (2007) Trends in Plant Science, 12: 514-521.; de Lucas et al. 2008, supra; S. H. Feng et al. 2008, supra. To establish the use of A1 in this assay, hypocotyl growth was first tested by growing the seedlings on agar plates containing A1, with GA and PAC used as positive and negative controls, respectively, for three days in reduced light conditions to achieve a balance between maximum and minimum hypocotyl growth. […] Having established the hypocotyl assay, DELLA-dependence of the A1 effect was then confirmed genetically. To test this, a mutant line that lacks all DELLA (GAI, RGA, RGL1, RGL2 and RGL3) function was used.
The effect of additional compounds on hypocotyl growth was investigated using the same methods as described above (100 μM of each compound was used). […]

[2] = tested on: Arabidopsis thaliana wild-type; assay: Root growth assay, seedlings on agar plates containing chemical; assay type: in vivo; conditions: 100 μM; for Root growth activity relative to A1: 7-day old seedlings, 5 days
Method: Arabidopsis thaliana wild-type seeds were from laboratory stocks of Columbia (Col-0) and Landsberg erecta (Ler-0) accessions. […] Seeds were plated out 1×MS medium pH 5.8 (T. Murashige and F. Skoog (1962) Physiologia Plantarum 15: 473-497) in petri dishes with a concentration of either 0.8% or 1.2% (w/v) phytoagar for root and hypocotyl measurements, respectively. After sowing seeds were stratified on plates at 4° C. for a minimum of 48 h to achieve synchronous germination. Seedlings were grown for either 7 or 2 days for root and hypocotyl measurements, respectively, prior to treatment with chemicals. […] Seedling were grown in a Percival (CU-36L5D, CLF plant climatics, Emersacker, Germany) with a photoperiod of 16/8 h with a light intensity of either 150 μmol m^2 s^−1 or 50 μmol m^2 s^−1 for root and hypocotyl measurements, respectively, and a temperature of 20±1° C.
The effect of the A1 analogues on root and hypocotyl growth was investigated. In order to allow a direct comparison with eW5, the concentration used in these assays was 100 μM. The root growth assay was performed by treating the 7-day old seedlings on chemical plates for 5 days.

gid1 double mutants = assay: Hypocotyl growth assay in GA receptor gid1 double mutants; assay type: in vivo, Arabidopsis thaliana
Excerpt: as §2, §3

maize = assay: Growth of a monocot on application of A1; assay type: in vivo
ga1-5 mutant = assay: Hypocotyl growth assay in GA biosynthesis mutant ga1-5; assay type: in vivo, Arabidopsis thaliana; conditions: 100 μM, three days
Excerpt: as §2, §3

[3] = hypocotyl, relative to DMSO control

For `CC(C)(C)[C@@H](O)[C@@H](Cc1ccc(Cl)cc1)n1cncn1` (racemic) [PAC, paclobutrazol, reference compound], the “GFP fluorescence / stability of DELLA protein in roots” value (RGA-GFP) was “stabilized the DELLA protein”.

In the case of `NCCCCCCNS(=O)(=O)c1cccc2c(Cl)cccc12` [Compound W7, N-(6-Aminohexyl)-5-chloro-1-naphthalenesulfonamide], the “Effect on plant growth” value (plant) is given as “inhibit plant growth”.

With `Cl.NCCNS(=O)(=O)c1cccc2ccccc12` [eW5, 2′-Amino-1′-(1-naphthylsulfonylamino)Ethane Hydrochloric Acid Salt] the “Fresh weight of roots and shoots” value (Arabidopsis thaliana; 12 days old seedlings) was “increased”, the “Dry:fresh weight ratio in roots and shoots” value (Arabidopsis thaliana; dried at 65° C. for 3 days) was “increased” and the “Time after which the DELLA degradation response could be observed” value (RGA-GFP) was 2 h. The “GFP fluorescence / stability of DELLA protein in roots” value (RGA-GFP) was “reduced GFP fluorescence”, the “Effect on hypocotyl growth in mutant lacking all DELLA function” value (della quintuple mutant) was “no promotion of hypocotyl growth was observed” and the “Effect on hypocotyl growth in wild type” value ([1]; three days) was “increased the hypocotyl length”. For the same molecule, the “Effect on hypocotyl growth in wild type” value ([1]; three days, listed as A1) was “stimulated hypocotyl growth in a manner very similar to GA”, the “New Length” value ([1]; hypocotyl, three days) was 0.9253 and the “Relative growth (cm)” value [1, 3] was 0.3497. The “Effect on root growth compared to DMSO control” value ([2]; 5 days on chemical) was “promoted root growth”, the “Effect on hypocotyl length in gid1 double mutants compared with wild type” value (gid1 double mutants) was “the effect was reduced in the mutants” and the “Root, stem and leaf growth in maize” value (maize) was “Improved root, stem (hypocotyl in particular) and leaf growth”. For the same molecule, the “Recovery of hypocotyl elongation in ga1-5” value (ga1-5 mutant) was “could not recover hypocotyl elongation”.

In the case of `Cl.NCCNS(=O)(=O)Cc1ccccc1` [Compound E3, Alpha-toluenesulfonylethylene Diamine Hydrochloric Acid Salt], the “Hypocotyl growth promotion relative to A1” value [1] was “less hypocotyl growth promotion relative to A1” and the “Root growth activity relative to A1” value [2] was “higher activity than A1”.

In the case of `CN(CCN)S(=O)(=O)c1cccc2ccccc12.Cl` [Compound E5, N-methyl-N-naphthylsulfonyl-1,2-ethanediamine Hydrochloric Acid Salt], the “Hypocotyl growth promotion relative to A1” value [1] was “biggest effect” and the “Root growth activity relative to A1” value [2] was “biggest effect”.

In the case of `NCCCCCCNS(=O)(=O)c1cccc2ccccc12` [Compound W5, N-(6-Aminohexyl)-1-naphthalenesulfonamide], the “Effect on plant growth” value (plant) is given as “inhibit plant growth”.

For `Cc1ccc(CS(=O)(=O)NCCN)cc1.Cl` [Compound E4, Alpha-p-xylenesulfonylethylene Diamine Hydrochloric Acid Salt], the “Hypocotyl growth promotion relative to A1” value [1] was “less hypocotyl growth promotion relative to A1” and the “Root growth activity relative to A1” value [2] was “higher activity than A1”.

In the case of `NCCNS(=O)(=O)c1cccc2c(Cl)cccc12` [JAR482, N-(2′-aminoethyl)-5-chloronaphthalene-1-sulfonamide Hydrochloride], the “New Length” value ([1]; hypocotyl, three days) was 0.5888.

In the case of `CN(CCN)S(=O)(=O)c1cccc2ccccc12` [JAR491, N-(2′-aminoethyl)-N-methylnaphthalene-1-sulfonamide], the “New Length” value ([1]; hypocotyl, three days) was 0.8285 and the “Relative growth (cm)” value [1, 3] was 0.2085.

With `COc1ccc2ccccc2c1S(=O)(=O)NCCN.Cl` [JAR36, N-(2′-aminoethyl)-2-methoxynaphthalene-1-sulfonamide Hydrogen Chloride] the “New length (cm)” value ([1]; hypocotyl, three days, trials 1, 2, 3 and SAM each with own DMSO control) was 0.329 cm and the “Relative growth (cm)” value ([1]; hypocotyl, relative to the DMSO control of the same trial) was 0.4.
